Tests used:
[1] = test system: steroid 5α-reductase; conditions: cited from earlier work; for Anti-androgenic activity by inhibitory effects on steroid 5α-reductase activity: laboratory animals
[2] = in vivo; cited from earlier work
[3] = test system: testosterone-stimulated flank organs; assay: Effect on testosterone-stimulated flank organs in the castrated hamster (topical); assay type: in vivo; conditions: for Flank Organ Cholest., Mean ± S.E. / Flank Organ Diameter, Mean ± S.E. / Flank Organ Wet Wgt, Mean ± S.E. / Flank Organ Develop. (Med. Score): topical; for Flank Organ Cholest., Mean ± S.E. / Flank Organ Diameter, Mean ± S.E. / Flank Organ Wet Wgt, Mean ± S.E.: 14 times over 2 weeks; for Inhibition of testosterone-stimulated increase in the cholesterol contact of the flank organs (in words) / Reduction of testosterone-stimulated increase in flank organ diameter (in words) / Suppression of flank organ development, degree of pigmentation (in words) / Wet weight of the flank organs (in words): topical with 1 μg TP; for Flank Organ Develop. (Med. Score): degree of pigmentation, score 0 to 4, 2 weeks
Method: (§1) The effect of 17α-(n-propyl)androst-4-en-17β -ol-3-one and 17α-(n-butyl)androst-4-en-17β -ol-3-one on testosterone-stimulated flank organs and on endocrine organs in the castrated hamster was determined as follows:
(§2) Castrated hamsters were treated on both flank organs topically with testosterone propionate (TP) equivalent to 1 microgram of testosterone with or without the test agents dissolved in 5 microliters of absolute ethanol 14 times over a 2 weeks period. The hamsters were 4-5 weeks of age (55 to 75 grams body weight) and were caged individually. After the end of the two-weeks period, the development (degree of pigmentation) and diameter of the flank organs were assessed and measured, and the flank organs were punched out with an 8 mm cork borer for determination of wet weight and cholesterol content. Endocrine organ weights (adrenal gland, seminal vesicle and thymus gland) were also determined.
In the first table TP refers to testosterone propionate, Compd. I refers to 17α-(n-propyl)androst-4-en-17β -ol-3-one, Compd. II refers to 17α-(n-butyl)androst-4-en-17β -ol-3-one, and n refers to the number of animals in each group.

[4] = test system: endocrine organs (adrenal gland, seminal vesicle and thymus gland); assay: Endocrine organ weights in the castrated hamster after topical treatment; assay type: in vivo; conditions: for Endocr. Organ Wgts, Mean ± S.E.: Adrenal Gland / Endocr. Organ Wgts, Mean ± S.E.: Seminal Vesicle / Endocr. Organ Wgts, Mean ± S.E.: Thymus Gland: topical, 2 weeks; for Weights of the endocrine organs (in words): topical application, castrated hamsters
Method: as §1, §2

[5] = test system: flank organ sebaceous glands; assay: Daily topical application to normal, sexually mature male hamsters; assay type: in vivo, hamster; conditions: 200 μg daily, 6 weeks
[6] = test system: steroid 5α-reductase; assay: Inhibition of conversion of testosterone to dihydrotestosterone, minced hamster flank organ, tritiated testosterone; assay type: biochemical
Method: The effectiveness of 17α-(n-propyl)androst-4-en-17β -ol-3-one in inhibiting the conversion of testosterone dihydrotestosterone by the enzyme steroid 5α-reductase was measured using minced hamster flank organ as a source of the enzyme and tritiated testosterone as a substrate. At concentrations of one-hundredth molar and one-thousandth molar, 17α-(n-propyl)androst-4-en-17β -ol-3-one was 100% and 53% inhibitory, respectively.

[7] = Standard test procedures for androgenic, estrogenic or anabolic properties; assay type: in vivo
[8] = Progestational activity (Clauberg assay); assay type: in vivo
Method: When 17α-(n-propyl)androst-4-en-17β -ol-3-one was administered intramuscularly, its progestational activity was about one-fortieth that of progesterone.

[9] = Serum testosterone levels after topical application to sexually mature hamsters; assay type: in vivo, hamster; conditions: 200 μg per flank organ topically, 3 weeks
Method: When 17α-(n-propyl)androst-4-en-17β -ol-3-one was topically applied to sexually mature hamsters at 200 μg per flank organ for a period of 3 weeks, serum testosterone levels were unchanged compared with untreated controls.

[10] = Subcutaneous and oral toxicity (LD50) in the mouse; conditions: in vivo
Source text: (§3) 17α-(n-Propyl)androst-4-en-17β -ol-3-one is conveniently prepared by a three-step synthesis from 3β -acetoxyandrost-5-en-17-one in an over-all yield of 43%. The first step is a Grignard reaction with allylmagnesium bromide to give 17α-allylandrost-5-ene-3β,17β-diol in 81% yield. The second step is a hydrogenation over 10% palladium-on-carbon catalyst to afford 17α-propylandrost-5-ene-3β, 17β-diol in 88% yield. The third step is an Oppenauer oxidation with aluminum isopropoxide to give the desired 17α-(n-propyl)androst-4-en-17β -ol-3-one in 60.5% yields.

[11] = Subcutaneous and oral toxicity (LD50) in the rat; conditions: in vivo
Source text: as §3

[12] = test system: acne or sebum secretion; conditions: tried topically; cited from earlier work
[13] = 200 μg topically with 1 μg testosterone propionate, castrated hamsters
[14] = castrated hamsters, 1 μg TP + 100 μg test compound
[15] = castrated hamsters, 1 μg TP + 200 μg test compound
[16] = Group III: 1 μg TP + 100 μg test compound
[17] = Groups IV, V: 1 μg TP + 200 μg test compound
[18] = oral, read-out: Oral toxicity (LD50)
[19] = sc, subcutaneous, read-out: Subcutaneous toxicity (LD50)
[20] = castrated hamsters, 1 μg TP alone

C[C@]12CC[C@H]3[C@@H](CCC4=CC(=O)CC[C@@]43C)[C@@H]1CC[C@@H]2C(=O)O [3-oxoandrost-4-ene-17β-carboxylic acid]
Block of the action of dihydrotestosterone on flank organ responses ([1]; castrated hamsters): did not, however, block | Anti-androgenic activity by inhibitory effects on steroid 5α-reductase activity [1]: exhibit anti-androgenic activity

CC[C@]1(O)CC[C@H]2[C@@H]3CCC4=CC(=O)CC[C@]4(C)[C@H]3CC[C@@]21C [17α-ethylandrost-4-en-17β-ol-3-one]
Systemic androgenic activity [2]: have systemic androgenic activity

CCC[C@]1(OC=O)CC[C@H]2[C@@H]3CCC4=CC(=O)CC[C@]4(C)[C@H]3CC[C@@]21C [17β-Formyloxy-17α-(n-propyl)androst-4-en-3-one]
Activity relative to the parent alcohol, by cholesterol content [3, 13]: about 40% | Flank organ development (in words) [3, 13]: no effect | Flank organ size (in words) [3, 13]: slightly reduced flank organ size | Reduction of flank organ cholesterol content [3, 13]: 32% | Reduction of flank organ wet weight [3, 13]: about 13%

CCC[C@]1(O)CC[C@H]2[C@@H]3CCC4=CC(=O)CC[C@]4(C)[C@H]3CC[C@@]21C [Compd. I, 17α-(n-propyl)androst-4-en-17β -ol-3-one]
Flank Organ Cholest., Mean ± S.E. [3, 14]: 162 ± 5.8 µg | Flank Organ Diameter, Mean ± S.E. [3, 14]: 3.71±0.22 mm | Flank Organ Wet Wgt, Mean ± S.E. [3, 14]: 28.5 ± 1.0 mg | Flank Organ Cholest., Mean ± S.E. [3, 15]: 163 ± 9.4 µg | Flank Organ Diameter, Mean ± S.E. [3, 15]: 3.91±0.14 mm | Flank Organ Wet Wgt, Mean ± S.E. [3, 15]: 27.5 ± 1.3 mg | Inhibition of testosterone-stimulated increase in the cholesterol contact of the flank organs (in words) ([3]; castrated hamsters): effective as inhibitors | Reduction of testosterone-stimulated increase in flank organ diameter (in words) ([3]; castrated hamsters): effective | Suppression of flank organ development, degree of pigmentation (in words) ([3]; castrated hamsters): effective in suppressing flank organ development | Wet weight of the flank organs (in words) ([3]; castrated hamsters): reduced the wet weight of the flank organs below that recorded for the vehicle control | Flank Organ Develop. (Med. Score) ([3]; 1 μg TP + 100 μg test compound): 3.5 | Flank Organ Develop. (Med. Score) ([3]; 1 μg TP + 200 μg test compound): 3.0 | Flank Organ Develop. (Med. Score) ([3]; 1 μg TP + 200 μg test compound, listed as Compound I): 3 | Endocr. Organ Wgts, Mean ± S.E.: Adrenal Gland [4, 16]: 12.1±0.32 Mg | Endocr. Organ Wgts, Mean ± S.E.: Seminal Vesicle [4, 16]: 39.5±2.9 Mg | Endocr. Organ Wgts, Mean ± S.E.: Thymus Gland [4, 16]: 58.3±6.7 Mg | Endocr. Organ Wgts, Mean ± S.E.: Adrenal Gland [4, 17]: 11.6±0.48 Mg | Endocr. Organ Wgts, Mean ± S.E.: Seminal Vesicle [4, 17]: 34.0±2.6 Mg | Endocr. Organ Wgts, Mean ± S.E.: Thymus Gland [4, 17]: 43.5±4.9 Mg | Weights of the endocrine organs (in words) [4]: not significantly altered | Flank organ development [5]: caused a regression in flank organ development | Seminal vesicle weights [5]: not reduced | Size and lipid content of the sebaceous glands [5]: significantly reduced | Inhibition of conversion of testosterone to dihydrotestosterone by steroid 5α-reductase ([6]; concentration one-hundredth molar): 100% | Inhibition of conversion of testosterone to dihydrotestosterone by steroid 5α-reductase ([6]; concentration one-thousandth molar): 53% | Androgenic, estrogenic or anabolic properties [7]: devoid of any significant androgenic, estrogenic or anabolic properties | Progestational activity, Clauberg assay ([8]; 32 mg/kg applied topically): minimal progestational activity | Progestational activity relative to that of progesterone ([8]; administered intramuscularly): about one-fortieth | Serum testosterone levels compared with untreated controls [9]: unchanged | LD50 [10, 18]: > 5000 mg/kg | LD50 [10, 19]: > 1000 mg/kg | LD50 [11, 18]: > 5000 mg/kg | LD50 [11, 19]: > 1000 mg/kg

CCCC[C@]1(O)CC[C@H]2[C@@H]3CCC4=CC(=O)CC[C@]4(C)[C@H]3CC[C@@]21C [Compd. II, 17α-(n-butyl)androst-4-en-17β -ol-3-one]
Flank Organ Cholest., Mean ± S.E. [3, 15]: 151 ± 8.9 µg | Flank Organ Diameter, Mean ± S.E. [3, 15]: 3.24±0.13 mm | Flank Organ Wet Wgt, Mean ± S.E. [3, 15]: 21.6 ± 1.2 mg | Inhibition of testosterone-stimulated increase in the cholesterol contact of the flank organs (in words) ([3]; castrated hamsters): effective as inhibitors | Reduction of testosterone-stimulated increase in flank organ diameter (in words) ([3]; castrated hamsters): effective | Suppression of flank organ development, degree of pigmentation (in words) ([3]; castrated hamsters): effective in suppressing flank organ development | Wet weight of the flank organs (in words) ([3]; castrated hamsters): reduced the wet weight of the flank organs below that recorded for the vehicle control | Flank Organ Develop. (Med. Score) ([3]; 1 μg TP + 200 μg test compound): 1.0 | Flank Organ Develop. (Med. Score) ([3]; 1 μg TP + 200 μg test compound, listed as Compound II): 1 | Endocr. Organ Wgts, Mean ± S.E.: Adrenal Gland [4, 17]: 12.4±0.53 Mg | Endocr. Organ Wgts, Mean ± S.E.: Seminal Vesicle [4, 17]: 34.0±4.1 Mg | Endocr. Organ Wgts, Mean ± S.E.: Thymus Gland [4, 17]: 60.7±7.6 Mg | Weights of the endocrine organs (in words) [4]: not significantly altered

C[C@]12CCC(=O)C=C1CC[C@@H]1[C@@H]2CC[C@@]2(C)[C@H]1CC[C@]2(C)O [Methyltestosterone]
Systemic androgenic activity [2]: have systemic androgenic activity

CCC(=O)O[C@H]1CC[C@H]2[C@@H]3CCC4=CC(=O)CC[C@]4(C)[C@H]3CC[C@]12C [TP, testosterone propionate, reference compound]
Flank Organ Cholest., Mean ± S.E. [3, 20]: 238 ± 26 µg | Flank Organ Diameter, Mean ± S.E. [3, 20]: 4.30±0.15 mm | Flank Organ Wet Wgt, Mean ± S.E. [3, 20]: 42.0 ± 1.2 mg | Flank Organ Develop. (Med. Score) ([3]; 1 μg TP alone): 4.0 | Endocr. Organ Wgts, Mean ± S.E.: Adrenal Gland ([4]; Group II: 1 μg TP alone): 11.8±0.81 Mg | Endocr. Organ Wgts, Mean ± S.E.: Seminal Vesicle ([4]; Group II: 1 μg TP alone): 35.0±2.9 Mg | Endocr. Organ Wgts, Mean ± S.E.: Thymus Gland ([4]; Group II: 1 μg TP alone): 55.2±6.5 Mg

CC(=O)O[C@]1(C(C)=O)CC[C@H]2[C@@H]3C=C(Cl)C4=CC(=O)[C@@H]5C[C@@H]5[C@]4(C)[C@H]3CC[C@@]21C [cyproterone acetate, 6-chloro-1α , 2α-methylene-4,6-pregnadien-17α-o1-3,20-dione acetate]
Effectiveness against acne or sebum secretion [12]: not to be effective

COC(=O)[C@H]1CC[C@H]2[C@@H]3CCC4=CC(=O)CC[C@]4(C)[C@H]3CC[C@]12C [methyl ester thereof]
Anti-androgenic activity by inhibitory effects on steroid 5α-reductase activity [1]: exhibit anti-androgenic activity

CC(=O)[C@H]1CC[C@H]2[C@@H]3CCC4=CC(=O)CC[C@]4(C)[C@H]3CC[C@]12C [progesterone, reference compound]
Progestational activity, Clauberg assay ([8]; 2 mg/kg applied topically): maximal response

From patent publication US4039669A, “Composition for topical application and use thereof” (Sterling Drug Inc., priority 1975, dated 1977)
